Measured values taken from US20250282785A1, “PYRROLIDINONE DERIVATIVES AS INHIBITORS OF NF KAPPA B INDUCING KINASE” (priority 2022, published 2025).

Columns and labels:
[1] = tested on: p-IKKα levels in L363 (NIK translocated multiple myeloma) cells; test: Effect of compounds on p-IKKα levels in L363 cells (AlphaLISA SureFire Ultra); format: cell-based; settings: Homo sapiens, L-363; L363 cells, BAFF stimulated, MG132, 6 h; average of values; read-out: Assay 2 IC50
Outline: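 L363 myeloma cells were BAFF-stimulated (250 ng/ml) overnight in DMEM/0.5% BSA, then exposed 6 h at 37° C to compound (11-point 1:3 series, 0.3% DMSO) with BAFF plus 10 uM MG132. p-IKKα (Ser 176/180) was read by AlphaLISA SureFire Ultra in lysates. IC50 came from sigmoidal fits normalized to stimulated and unstimulated controls.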

[2] = target: Recombinant Human NF-Kappab-Inducing Kinase (NIK/MAP3K14) (Homo sapiens, UniProt Q99558); test: Inhibition of auto-phosphorylation of recombinant human NIK/MAP3K14 (AlphaScreen); format: biochemical; settings: NIK/MAP3K14 auto-phosphorylation, 5 microM ATP, 1 nM enzyme, 2 h at 25° C.; average of values; read-out: Assay 1 IC50
Chain of Recombinant Human NF-Kappab-Inducing Kinase (NIK/MAP3K14) (Q99558 whole entry): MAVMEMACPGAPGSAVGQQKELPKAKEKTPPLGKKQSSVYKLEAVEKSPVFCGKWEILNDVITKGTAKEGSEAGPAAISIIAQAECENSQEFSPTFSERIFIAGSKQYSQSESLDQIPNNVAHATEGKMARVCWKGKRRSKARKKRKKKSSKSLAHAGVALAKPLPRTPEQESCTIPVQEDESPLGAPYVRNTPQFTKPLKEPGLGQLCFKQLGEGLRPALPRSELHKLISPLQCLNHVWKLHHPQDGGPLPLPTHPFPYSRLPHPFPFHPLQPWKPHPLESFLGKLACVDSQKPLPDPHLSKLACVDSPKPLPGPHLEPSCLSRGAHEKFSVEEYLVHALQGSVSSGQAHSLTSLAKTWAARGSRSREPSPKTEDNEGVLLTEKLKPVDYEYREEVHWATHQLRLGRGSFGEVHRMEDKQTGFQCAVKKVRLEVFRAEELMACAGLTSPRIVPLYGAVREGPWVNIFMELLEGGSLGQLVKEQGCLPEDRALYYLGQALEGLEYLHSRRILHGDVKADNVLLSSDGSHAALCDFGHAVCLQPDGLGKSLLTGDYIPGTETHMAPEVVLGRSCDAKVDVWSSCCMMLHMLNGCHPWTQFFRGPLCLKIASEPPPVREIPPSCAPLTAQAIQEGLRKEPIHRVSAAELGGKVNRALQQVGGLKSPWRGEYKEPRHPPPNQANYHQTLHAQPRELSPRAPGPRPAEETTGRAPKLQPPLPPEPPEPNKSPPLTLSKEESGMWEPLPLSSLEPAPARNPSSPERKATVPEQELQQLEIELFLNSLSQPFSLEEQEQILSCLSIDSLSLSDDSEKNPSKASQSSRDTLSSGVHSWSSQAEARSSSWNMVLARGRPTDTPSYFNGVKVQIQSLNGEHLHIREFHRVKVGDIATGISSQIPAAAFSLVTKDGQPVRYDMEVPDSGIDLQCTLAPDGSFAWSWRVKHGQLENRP
Outline: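 GST-tagged NIK (1 nM) auto-phosphorylation with 5 µM ATP in Tris pH 7.5/MgCl2 buffer, 0.7% DMSO, 2 h at 25 °C. Phospho-IKK Ser176/180 antibody detected by AlphaScreen beads. Signal normalized to full-enzyme and no-ATP controls; IC50 from sigmoidal fit of % inhibition vs log concentration.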

Row | Compound | IC50 [1] [nM] | IC50 [2] [nM]
1 | CN1CC[C@@](O)(c2cc(-c3cccc(-c4nc(C(N)=O)c5ccc(F)cc5n4)c3)on2)C1=O [Example 160, (R)-7-Fluoro-2-(3-(3-(3-hydroxy-1-methyl-2-oxopyrrolidin-3-yl)isoxazol-5-yl)phenyl)quinazoline-4-carboxamide] | > 501 | < 100
2 | CN1CC[C@@](O)(c2cc(-c3cccc(-c4ccnc(C(N)=O)n4)c3)no2)C1=O [Example 162, (R)-4-(3-(5-(3-Hydroxy-1-methyl-2-oxopyrrolidin-3-yl)isoxazol-3-yl)phenyl)pyrimidine-2-carboxamide] | > 501 | < 100
3 | CN1CC[C@@](O)(c2cc(-c3cccc(-c4c[nH]c5nccnc45)c3)no2)C1=O [Example 163, (R)-3-(3-(3-(5H-Pyrrolo[2,3-b]pyrazin-7-yl)phenyl)isoxazol-5-yl)-3-hydroxy-1-methylpyrrolidin-2-one] | > 501 | < 100
4 | CN1CC[C@@](O)(c2cc(-c3ccc(-c4cccc(C(N)=O)n4)o3)no2)C1=O [Example 164, (R)-6-(5-(5-(3-Hydroxy-1-methyl-2-oxopyrrolidin-3-yl)isoxazol-3-yl)furan-2-yl)picolinamide] | > 501 | < 100
5 | CN1CC[C@@](O)(c2cc(-c3cccc(-n4nc(C(N)=O)c5ccccc54)c3)no2)C1=O [Example 166, (R)-1-(3-(5-(3-hydroxy-1-methyl-2-oxopyrrolidin-3-yl)isoxazol-3-yl)phenyl)-1H-indazole-3-carboxamide] | 100 to 500 | < 100
6 | CN1CC[C@@](O)(c2cc(-c3ccnc(-c4cccc(C(N)=O)n4)c3)no2)C1=O [Example 168, (R)-4′-(5-(3-Hydroxy-1-methyl-2-oxopyrrolidin-3-yl)isoxazol-3-yl)-[2,2′-bipyridine]-6-carboxamide] | > 501 | < 100
7 | CN1CC[C@@](O)(c2cc(-c3ccnc(-c4ccc(N)c(C(N)=O)n4)c3)no2)C1=O [Example 169, (R)-5-Amino-4′-(5-(3-hydroxy-1-methyl-2-oxopyrrolidin-3-yl)isoxazol-3-yl)-[2,2′-bipyridine]-6-carboxamide] | < 100 | < 100
8 | Cc1nc(N)c2nc(-c3cc(-c4cc([C@]5(O)CCN(C)C5=O)on4)ccn3)ccc2n1 [Example 170, (R)-3-(3-(2-(4-Amino-2-methylpyrido[3,2-d]pyrimidin-6-yl)pyridin-4-yl)isoxazol-5-yl)-3-hydroxy-1-methylpyrrolidin-2-one] | > 501 | < 100
9 | CN1CC[C@@](O)(c2cc(-c3cccc(-c4nc5c(c(C(N)=O)n4)[C@H]4CC[C@@H](C5)O4)c3)no2)C1=O [Example 171, (5R,8S)-2-(3-(5-((R)-3-Hydroxy-1-methyl-2-oxopyrrolidin-3-yl)isoxazol-3-yl)phenyl)-6,7,8,9-tetrahydro-5H-5,8-epoxycyclohepta[d]pyrimidine-4-carboxamide] | > 501 | < 100
10 | CN1CC[C@](O)(c2cc(-c3cccc(-c4nc5c(c(C(N)=O)n4)[C@H]4CC[C@@H](C5)O4)c3)no2)C1=O [Example 172, (5R,8S)-2-(3-(5-((S)-3-Hydroxy-1-methyl-2-oxopyrrolidin-3-yl)isoxazol-3-yl)phenyl)-6,7,8,9-tetrahydro-5H-5,8-epoxycyclohepta[d]pyrimidine-4-carboxamide] | > 501 | > 501
11 | CN1CC[C@@](O)(c2cc(-c3cccc(-c4nc5c(c(C(N)=O)n4)[C@H]4CC[C@@H](C5)O4)c3)[nH]n2)C1=O [Example 173, (5R,8S)-2-(3-(5-((R)-3-Hydroxy-1-methyl-2-oxopyrrolidin-3-yl)-1H-pyrazol-3-yl)phenyl)-6,7,8,9-tetrahydro-5H-5,8-epoxycyclohepta[d]pyrimidine-4-carboxamide] | > 501 | < 100
12 | Cc1ccc(-c2cc([C@]3(O)CCN(C)C3=O)no2)cc1-c1nc2c(N)ncnc2s1 [Example 175, (R)-3-(5-(3-(7-Aminothiazolo[5,4-d]pyrimidin-2-yl)-4-methylphenyl)isoxazol-3-yl)-3-hydroxy-1-methylpyrrolidin-2-one] | > 501 | < 100
13 | [2H]C1([2H])N(C)C(=O)[C@](O)(c2cc(-c3cccc(-c4cc(C5CC5)c(N)c(C(N)=O)n4)c3)no2)C1([2H])[2H] [Example 177, (R)-3-Amino-4-cyclopropyl-6-(3-(5-(3-hydroxy-1-methyl-2-oxopyrrolidin-3-yl-4,4,5,5-d4)isoxazol-3-yl)phenyl)picolinamide] | < 100 | < 100
14 | CN1C(=O)[C@](O)(c2cc(-c3cccc(-c4cc(C5CC5)c(N)c(C(N)=O)n4)c3)no2)C[C@H]1C(F)(F)F [Example 178, 3-Amino-4-cyclopropyl-6-(3-(5-((3R,5S)-3-hydroxy-1-methyl-2-oxo-5-(trifluoromethyl)pyrrolidin-3-yl)isoxazol-3-yl)phenyl)picolinamide] | > 501 | < 100
15 | [2H]C([2H])([2H])N1CC[C@@](O)(c2cc(-c3cccc(-c4cc(C5CC5)c(N)c(C(N)=O)n4)c3)no2)C1=O [Example 179, (R)-3-Amino-4-cyclopropyl-6-(3-(5-(3-hydroxy-1-(methyl-d3)-2-oxopyrrolidin-3-yl)isoxazol-3-yl)phenyl)picolinamide] | < 100 | < 100
16 | [2H]C1([2H])N(C)C(=O)[C@](O)(c2cc(-c3cccc(-c4nc(C(N)=O)n5c4CCCC5)c3)no2)C1([2H])[2H] [Example 180, (R)-1-(3-(5-(3-Hydroxy-1-methyl-2-oxopyrrolidin-3-yl-4,4,5,5-d4)isoxazol-3-yl)phenyl)-5,6,7,8-tetrahydroimidazo[1,5-a]pyridine-3-carboxamide] | 100 to 500 | < 100
17 | [2H]C([2H])([2H])N1CC[C@@](O)(c2cc(-c3cccc(-c4nc(C(N)=O)n5c4CCCC5)c3)no2)C1=O [Example 181, (R)-1-(3-(5-(3-Hydroxy-1-(methyl-d3)-2-oxopyrrolidin-3-yl)isoxazol-3-yl)phenyl)-5,6,7,8-tetrahydroimidazo[1,5-a]pyridine-3-carboxamide] | 100 to 500 | < 100
18 | CN1CC[C@@](O)(c2cc(-c3cccc(-c4cc(-c5ccnn5C)cc(C(N)=O)n4)c3)no2)C1=O [Example 182, (R)-6-(3-(5-(3-Hydroxy-1-methyl-2-oxopyrrolidin-3-yl)isoxazol-3-yl)phenyl)-4-(1-methyl-1H-pyrazol-5-yl)picolinamide] | > 501 | < 100
19 | CN1CC[C@@](O)(c2cc(-c3cccc(-c4cc(-c5ccns5)cc(C(N)=O)n4)c3)no2)C1=O [Example 183, (R)-6-(3-(5-(3-Hydroxy-1-methyl-2-oxopyrrolidin-3-yl)isoxazol-3-yl)phenyl)-4-(isothiazol-5-yl)picolinamide] | > 501 | < 100
20 | CN1CC[C@@](O)(c2cc(-c3cccc(-c4cc(-c5cncs5)cc(C(N)=O)n4)c3)no2)C1=O [Example 184, (R)-6-(3-(5-(3-Hydroxy-1-methyl-2-oxopyrrolidin-3-yl)isoxazol-3-yl)phenyl)-4-(thiazol-5-yl)picolinamide] | 100 to 500 | < 100
21 | CN1CC[C@@](O)(c2cc(-c3cccc(-c4cc(-c5ccnn5C5CC5)cc(C(N)=O)n4)c3)no2)C1=O [Example 185, (R)-4-(1-Cyclopropyl-1H-pyrazol-5-yl)-6-(3-(5-(3-hydroxy-1-methyl-2-oxopyrrolidin-3-yl)isoxazol-3-yl)phenyl)picolinamide] | > 501 | < 100
